{"source": "patent US5488033A", "about": "“Treatment to reduce edema” (The Regents of the University of California, priority 1994, dated 1996)", "key": {"[1]": {"test_system": "cerebral cortex and basal ganglia (brain edema)", "experiment": "Freeze injury of cerebral cortex, water and sodium content as index of brain edema", "assay_type": "in vivo, rat", "settings": "CRF 30 μg/kg s.c. 2×, ± S.E.M., N = 5", "method": "In a second set of experiments, the brain surface, namely the cerebral cortex, was injured by freezing and the water and sodium content were measured in the cerebral cortex and in the basal ganglia, a part of the brain away from the freeze zone. The water and sodium content of the brain tissue served as an index of brain edema. After freeze injury, the water and sodium content of the cerebral cortex were evaluated relative to non-frozen tissues. CRF administered in two separate doses of 30 μg/kg subcutaneously, one dose 15 minutes before the injury and the second dose 90 minutes after the first dose, inhibited the two indices of brain edema.\nMale SpragueDawley rats, 300-325 g, anesthetized with\nketamineacepromazine, were injected saline or CRF (30 μg/kg s.c.\n2×) and injury to cerebral cortex was produced by applying a cold\nprobe to the skull for 1 min. Brain tissues were obtained 3 hr later and\nanalyzed for water and sodium content."}, "[2]": {"test_system": "vascular leakage produced by PAF-acether", "experiment": "Vascular leakage produced by PAF-acether injected subcutaneously into the abdomen", "assay_type": "in vivo, rat", "method": "CRF: 30 μg/kg s.c. injected 30 minutes before subcutaneous\ninjection of PAF-acether (1 μg/0.1 ml/rat) into the abdomen;\nmuscle removed 0.5 hour later."}, "[3]": {"test_system": "Freeze Injury to Brain (vascular permeability of brain)", "experiment": "Cold (freeze) injury to rat brain, vascular leakage by Monastral blue staining", "assay_type": "in vivo", "text": "An in vivo model of injury to study brain edema has been developed as a reproducible edema model, which has the features of immediate cortical damage followed by the subsequent development of brain edema. This model is described by Chan et al., Brain Research, 277, pp. 329-337 (1983). The model uses rats which are anesthetized. A 2.5 cm incision is made over the sagittal suture and the bone of the right hemisphere exposed. A 60 mm^2 plate attached to a brass cup filled with dry ice-acetone mixture, with a temperature of -50° C., is applied to the rat skull for one minute. The animals are sacrificed at various intervals after the onset of cold-injury. A dye is administered intravenously before the freezing. Cortical slices are then obtained of the brain.\nSixteen male rats were randomly divided into eight pairs and one rat in each pair received either saline or CRF (subcutaneously twice at 30 μg/kg, 30 min and 10 min before cold injury). The animals were anesthetized with sodium pentobarbital, 60 mg/kg intraperitoneally, and injected with Monastral blue, 60 mg/kg intravenously. A cold probe was applied onto the skull for four minutes and the brains taken out one hour after cold injury. The staining of brain tissues with Monastral blue, a colloidal pigment that gets trapped between the albuminal surface of the endothelial cell and the basement membrane, was proportional to the degree of vascular leakage. The results from the first pair are shown as FIG. 1.\nThe size of the lesion, measured as area in mm^2, and the degree of staining intensity, were quantified using an image-analysis software program called JAVA (Jandel Corporation, San Rafael, Calif.). The stain intensity, given in arbitrary units, was internally calibrated using Monastral blue solutions (1-30 mg/ml) placed on white filter paper. Values are mean ± S.E.M."}, "[4]": {"test_system": "abdominal muscle wall (vascular leakage after celiotomy)", "experiment": "Vascular leakage after celiotomy (4 cm midline incision of abdominal muscle wall), Monastral blue", "assay_type": "in vivo, rat", "settings": "for Area / Intensity / Lesion Size: tissues 0.5 hour after surgery; for lesion size relative to that of the saline-treated group: celiotomy", "method": "Experiments were conducted on male Sprague-Dawley rats 243±15 gm (S.D., Simonsen Labs., Gilroy, Calif.) anesthetized with sodium pentobarbital, 60 mg/kg i.p. Monastral blue, 60 mg/kg i.v., was injected 0.2 ml/100 g, 3 minutes before a 4 cm midline incision through the abdominal muscle wall (celiotomy). Saline or CRF was administered to randomized pairs with N=8 rats per group. The size of the lesion, measured as area in mm^2, and its light intensity, were quantified using the JAVA image-analysis software program. The light intensity, given in arbitrary units, was internally calibrated using Monastral blue solutions (1-30 mg/ml) placed on white filter paper. Values are mean ± S.E.M. FIG. 2 illustrates the respective amount of vascular permeability for one pair of rats (control and treated). Tables III and IV set out data from these experiments.\nCRF: injected at various doses subcutaneously 30 minutes\nbefore a 4 cm midline incision, tissues taken 0.5 hour\nCRF: 30 μg/kg s.c. injected 2 hour before a 4 cm\nmidline incision, tissues taken 0.5 hour after surgery"}, "[5]": {"test_system": "neutropenic rats infected with Pseudomonas", "experiment": "Neutropenic rat model of sepsis (Pseudomonas infection), survival", "assay_type": "in vivo", "settings": "CRF 100 μg/kg i.v. twice a day for four days after onset of fever; day 11; 9/15; P<0.002 vs saline (100% mortality by day 8)", "text": "The neutropenic rat model of sepsis, designed to mimic the systemic inflammatory response syndrome in humans, is described by Collins et al. from The Journal of Infectious Diseases, 159:6 (June 1989) and The Journal of Clinical Investigation, 88:885 (September 1991). […] The animals die from overwhelming infection within 7 to 9 days of infection and examination of the tissues with histological and pathological techniques reveal the characteristic organic manifestations of the systemic inflammatory response syndrome, namely, organ edema and tissue necrosis.\nIn a typical experiment, 10 rats serving as controls received saline and 15 rats received CRF at a dose of 100 μg/kg intravenously, given twice a day for four days after the onset of fever. At the end of 8 days, all of the animals in the control group were dead (100% mortality). By contrast, 60% (9/15) of the CRF group were still alive at day 11 when the experiment was concluded. The difference between the saline and CRF treated groups were statistically significant (P<0.002)."}, "[6]": {"settings": "injured cerebral cortex, tissue 3 hr after 1 min cold probe"}, "[7]": {"settings": "non-injured basal ganglia, tissue 3 hr after injury"}, "[8]": {"settings": "CRF 30 μg/kg s.c. 30 minutes before PAF-acether 1 μg/0.1 ml/rat s.c., muscle removed 0.5 hour later"}, "[9]": {"settings": "CRF 30 μg/kg s.c. twice, 30 min and 10 min before cold injury, brains taken 1 hour after injury, mean ± S.E.M."}, "[10]": {"settings": "CRF 15 μg/kg s.c. 30 minutes before incision"}, "[11]": {"settings": "CRF 30 μg/kg s.c. 30 minutes before incision"}, "[12]": {"settings": "CRF 30 μg/kg s.c. 2 hour before incision"}, "[13]": {"settings": "CRF 60 μg/kg s.c. 30 minutes before incision"}}, "note": "No end group written: not given here.", "data": [{"substance": "CRF: 41 amino acid neuropeptide, mammalian corticotropin-releasing factor; stimulates ACTH release from pituitary cells (SEEPPISLDLTFHLLREVLEMARAEQLAQQAHSNRKLMEII; not fully specified; ends and bridges not checked; UniProt P06850 154-194, looked up)", "values": [{"measurement": "SODIUM, cerebral cortex", "setting": "[1]; [6]", "result": "271 ± 8", "unit": "mEg/kg dry wt"}, {"measurement": "WATER CONTENT, cerebral cortex", "setting": "[1]; [6]", "result": "77 ± 4", "unit": "%"}, {"measurement": "SODIUM, basal ganglia", "setting": "[1]; [7]", "result": "215 ± 9", "unit": "mEg/kg dry wt"}, {"measurement": "WATER CONTENT, basal ganglia", "setting": "[1]; [7]", "result": "76 ± 1", "unit": "%"}, {"measurement": "muscle lesion size relative to that of the saline-treated control group", "setting": "[2]; CRF 30 μg/kg s.c. 30 minutes before PAF-acether", "result": 44, "unit": "%"}, {"measurement": "Area", "setting": "[2]; [8]", "result": "188 ± 16", "unit": "mm^2"}, {"measurement": "Intensity", "setting": "[2]; [8]", "result": "1.4 ± 0.05"}, {"measurement": "Lesion Size", "setting": "[2]; [8]", "result": "260 ± 26"}, {"measurement": "Area", "setting": "[3]; [9]", "result": "20.8 ± 1.2", "unit": "mm^2"}, {"measurement": "Intensity (staining intensity)", "setting": "[3]; [9]", "result": "2.0 ± 0.05", "unit": "arbitrary units"}, {"measurement": "Lesion Size", "setting": "[3]; [9]", "result": "43 ± 3"}, {"measurement": "lesion size relative to that of the saline-treated group", "setting": "[3]; brain cold injury, CRF 30 μg/kg s.c. twice", "result": 44, "unit": "%"}, {"measurement": "correct assignment of brains to saline or CRF group by an observer unaware of pretreatment", "setting": "[3]; eight pairs of rats, more damaged vs less damaged brain", "result": "8 out of 8"}, {"measurement": "Area", "setting": "[4]; [10]", "result": "505 ± 16", "unit": "mm^2"}, {"measurement": "Intensity", "setting": "[4]; [10]", "result": "2.0 ± 0.03", "unit": "arbitrary units"}, {"measurement": "Lesion Size", "setting": "[4]; [10]", "result": "1031 ± 44"}, {"measurement": "Area", "setting": "[4]; [11]", "result": "361 ± 18", "unit": "mm^2"}, {"measurement": "Intensity", "setting": "[4]; [11]", "result": "1.9 ± 0.05", "unit": "arbitrary units"}, {"measurement": "Lesion Size", "setting": "[4]; [11]", "result": "676 ± 47"}, {"measurement": "Area", "setting": "[4]; [12]", "result": "477 ± 31", "unit": "mm^2"}, {"measurement": "Intensity", "setting": "[4]; [12]", "result": "1.9 ± 0.03", "unit": "arbitrary units"}, {"measurement": "Lesion Size", "setting": "[4]; [12]", "result": "919 ± 51"}, {"measurement": "Area", "setting": "[4]; [13]", "result": "257 ± 3", "unit": "mm^2"}, {"measurement": "Intensity", "setting": "[4]; [13]", "result": "1.8 ± 0.05", "unit": "arbitrary units"}, {"measurement": "Lesion Size", "setting": "[4]; [13]", "result": "468 ± 19"}, {"measurement": "lesion size relative to that of the saline-treated group", "setting": "[4]; [10]", "result": 63, "unit": "%"}, {"measurement": "lesion size relative to that of the saline-treated group", "setting": "[4]; [11]", "result": 42, "unit": "%"}, {"measurement": "lesion size relative to that of the saline-treated group", "setting": "[4]; CRF 30 μg/kg s.c. 2 hours before injury", "result": 59, "unit": "%"}, {"measurement": "lesion size relative to that of the saline-treated group", "setting": "[4]; [13]", "result": 29, "unit": "%"}, {"measurement": "animals still alive (survival)", "setting": "[5]", "result": 60, "unit": "%"}]}]}
